Results on 91 molecules are retold here after a melting point compilation (Tetko et al.; mined from patent text by program, amines drawn as free bases though some values may be those of a salt).

Some results are limits rather than exact numbers.

Molecule `Cc1cc(C)n(-c2nc(Nc3cccc(Cl)c3)c3ccccc3n2)n1` registered a melting point of 259 to 262 °C.

In the case of `CC(C)=CCn1c(-c2ccc3c(c2)OCO3)nc2ccccc21`, the melting point fell in the range of 73.8 to 76 °C.

`CC[C@H](C)[C@H](Nc1nc(OC)ns1)C(=O)N1CCC[C@H]1C(=O)OC`: the melting point was 129 to 130 °C.

`CC(C)c1c[nH]c(=O)[nH]c1=O`: the melting point was in the range of 284 to 286 °C.

Molecule `COc1ccc(C2(C)CNC(=O)O2)cc1OC(C)C` (stereo unspecified) registered a melting point of 67 to 69.5 °C.

As for `COc1ccc(OCC(N)=O)c([N+](=O)[O-])c1`, the melting point lay in the range of 190 to 191 °C.

`CC(C)OC(=S)NC1(N=NC(C)(C)C)CCCCC1` came in with a melting point of 62 to 64 °C.

Consider `Oc1ccc(-c2nc3cccc(O)c3[nH]2)cc1C12CC3CC(CC(C3)C1)C2`, for which the melting point was in the range of 307 to 309 °C.

As to `CCOC(=O)c1nnc2c3ccc(Cl)cc3c(-c3ccccc3)nn12`, the melting point lay in the range of 266 to 268 °C.

`CCn1ncc(C(=O)c2ccc(S(C)(=O)=O)c(N3CCOC(=O)C3)c2Cl)c1O` registered a melting point of 198 to 202 °C.

Regarding `Nc1cccc(CN2CCN(C(c3ccccc3)c3ccccc3)CC2)n1`, the melting point lay within 144 to 145 °C.

`NS(=O)(=O)c1cccc(-c2noc(-c3cnn4c(C5CC5)cc(-c5ccc(Cl)cc5)nc34)n2)c1` yielded a melting point of 285 °C.

`C=CCn1c(=O)c2[nH]c(/C=C/c3ccc(OC)c(OC)c3)nc2n(CC=C)c1=O` gave a melting point of 252 °C.

With `CC(C)(C)OOC(C)(CCC(=O)N(N)C(=O)OCCOCCOC(=O)N(N)C(=O)CCC(C)(OOC(C)(C)C)OOC(C)(C)C)OOC(C)(C)C`, the melting point fell in the range of 45 to 50 °C.

As for `CC12CCC(=O)C=C1CCC1C2=CCC2(C)C1CCC2(OC=O)C(=O)CCl` (stereo unspecified), the melting point was 203 °C.

With `CN1CCN(CCCNc2nc(N)c(C(=O)c3ccc(Cl)s3)s2)CC1`, the melting point amounted to 184 °C.

With `COc1nccc2c([N+](=O)[O-])c(C)ccc12`, the melting point amounted to 94 °C.

With `Oc1cccc(C#CC=Cc2cccc(O)c2)c1`, the melting point fell in the range of 146 to 147 °C.

Molecule `N#Cc1ccc(Oc2ccc(CC(=O)O)cc2)cc1` had a melting point of 126 to 128 °C.

With `O=C(O)c1ccc(NC(=O)C(CS)Cc2ccccc2)cc1` (stereo unspecified), the melting point lay within 166 to 168 °C.

Molecule `O=C(O)CCC(Cc1ccccc1Cl)(C(=O)C=Cc1cccc(Cl)c1)c1ccccc1` (stereo unspecified) returned a melting point of 170 to 172 °C.

Regarding `CCN1CCCC1CNC(=O)c1c(C)[nH]c(C=O)c1C` (stereo unspecified), the melting point is 166 to 169 °C.

For `CC(=O)NC1Cc2ccc(Cl)cc2C1` (stereo unspecified), the melting point was 117 to 119 °C.

As for `O=[N+]([O-])c1ccc(N(CCO)CCO)cc1`, the melting point lay in the range of 102 to 104 °C.

With `O=C(NCCc1cccc2ccccc12)C1CC1`, the melting point was 117 to 118 °C.

For `O=C(CNc1ccc(F)c(F)c1)Nc1c(Cl)ccc2nc(N3CC[C@@H](O)C3)ccc12`, the melting point was 238 to 240 °C.

For the molecule `COc1ccc(C(=O)O)cc1Nc1ccccc1`, the melting point is 198 to 200 °C.

`CCN(CC)CCNC(=O)c1cccc2cc3cccc(I)c3nc12` had a melting point of 64 to 66 °C.

With `Cc1nc2c(N)nc3c(c2n1CCCCNC(=O)N1CCOCC1)CCCC3`, the melting point is 134 to 135 °C.

The molecule `CN(c1ccccc1)c1nc(Cl)nc2sccc12` gave a melting point of 167 to 168 °C.

The molecule `CCOCC(=NNc1ccc(C(F)(F)F)cc1)C(=O)NCc1ccc(Cl)nc1` returned a melting point of 98 to 99 °C.

As for `Cc1c(O)cccc1C(=O)N[C@@H](Cc1ccccc1)[C@H](O)C(=O)N1CSC(C)(C)[C@H]1C(=O)N[C@@H](C)c1ccccc1`, the melting point was in the range of 114 to 115 °C.

On to `CC(C(=O)O)c1ccc(C=C2CCCCC2O)cc1` (stereo unspecified), for which the melting point fell in the range of 135 to 136 °C.

The molecule `CCC(CC)N(Cc1ccc(C(=O)O)cc1)S(=O)(=O)c1ccc(C)cc1` returned a melting point of 86 to 88 °C.

In turn, `CCN(CC)CC1CCCCN1CCNC(=O)N1c2ccccc2NC(=O)c2cccnc21` (stereo unspecified) yielded a melting point of 146 to 148 °C.

The molecule `COc1ccc2cc(SCCC(=O)O)n(C)c2c1` came in with a melting point of 120 to 122 °C.

The molecule `O=C(O)c1cccc([N+](=O)[O-])c1SCCO` displayed a melting point of 91 to 93 °C.

Molecule `CCCCCCCCCCCCCCc1ccc(C(=O)OC)cc1` yielded a melting point of 28 to 29 °C.

Regarding `CC(=O)Oc1c(C)nc(N)nc1C(C)C`, the melting point is 141 to 142 °C.

Molecule `Cc1ccc2cccc(OCC(=O)c3ccccc3)c2n1` showed a melting point of 70 to 71 °C.

The molecule `O=[N+]([O-])C=Cc1cnc2c(OCc3ccccc3)cccn12` gave a melting point of 204 °C.

`C(#Cc1ccc(-c2nc3ccccc3s2)cc1)c1ccccc1`: the melting point fell in the range of 172 to 173 °C.

For `N#Cc1cc(F)ccc1Oc1ccc(-c2cn(C3CCOCC3)c3ncnc(N)c23)cc1`, the melting point was 216 to 217 °C.

As for `COc1ccc2[nH]c3c(c2c1)C(C)CNC3=O` (stereo unspecified), the melting point stood at 220 °C.

Regarding `N#Cc1c(N2CCN(C(=O)c3ccco3)CC2)c2cccnc2n(Cc2ccccc2)c1=O`, the melting point worked out at 206 °C.

As for `O=[N+]([O-])c1cc(CS(=O)(=O)Cc2ccc(O)c([N+](=O)[O-])c2)ccc1O`, the melting point was 166 to 168 °C.

`O=C(O)[C@H](Cc1ccc(C(F)(F)F)cc1)[C@@H](O)c1ccccc1` (racemic): the melting point fell in the range of 138 to 139 °C.

As to `Cc1nc2c3ccccc3ccn2c1CN1CCN(CCO)CC1`, the melting point lay in the range of 115 to 117 °C.

`COc1cc2c(CCN3CCN(c4cccc(Cl)c4C)CC3)nn(Cc3c[nH]cn3)c2cc1OC` registered a melting point of 143 to 144 °C.

Molecule `CC1(C)CCC(=O)Nc2cc(Nc3ncc4cc5ccccc5n4n3)ccc21` gave a melting point of 230 to 240 °C.

Regarding `O=c1oc2c(c(O)c1-c1ccccc1)CCCC2c1ccccc1` (stereo unspecified), the melting point is 185 °C.

For the molecule `CC(C)(C)c1cc(C(N)=O)cc(C(C)(C)C)c1O`, the melting point is 263 to 265 °C.

As to `COC1=NS(=O)N=C1NCCCCC#CCN1CCCCC1` (stereo unspecified), the melting point fell in the range of 134 to 136 °C.

Take `CC(C)[Si](C#Cc1ccc(-c2nc3cc(C#N)c(C#N)cc3[nH]2)cc1)(C(C)C)C(C)C`: the melting point was in the range of 347 to 348 °C.

In turn, `O=S(=O)(Oc1ccc(Cl)c2cccnc12)C(F)(F)F` yielded a melting point of 80 to 83 °C.

In turn, `CCOC(=O)C1=C2CCCN2C(C)=C(C(=O)OC)C1c1cccc([N+](=O)[O-])c1` (stereo unspecified) gave a melting point of 120 °C.

Take `COC(=O)Cc1cc(OCc2ccccc2)ccc1OC`: the melting point was 74 to 75 °C.

For the molecule `O=C(Nc1cc(-n2cccn2)nc(-c2ccco2)n1)OCc1cccnc1`, the melting point was in the range of 254 to 256 °C.

In turn, `C[C@@H](NS(=O)(=O)c1cccs1)c1cccc(C(=O)c2ccco2)c1` returned a melting point of 105 to 106 °C.

`CCCCCCCCCCCCNC(=O)Nc1sc(C(=O)O)c(C)c1C(=O)OC(C)(C)C` gave a melting point of 187 to 188 °C.

`O=C(c1cc2ccnc(Cl)c2[nH]1)N1CCSCC1`: the melting point fell in the range of 62 to 72 °C.

For the molecule `O=c1c2c[nH]c3ccccc3c-2nn1-c1ccc(O)cc1`, the melting point lay within 294 to 296 °C.

As for `O=C(CCCCl)Nc1n[nH]c2cc(Cl)ccc12`, the melting point worked out at 220 °C.

The molecule `O=S1(=O)NCN(C2CCCCCC2)c2cc(Cl)c(Cl)cc21` registered a melting point of 191 to 192 °C.

In the case of `CCCCCCCCCCCCNC(=O)n1nc(Oc2ncc(C(F)(F)F)cc2Cl)c(Cl)c1C`, the melting point lay within 68 to 70 °C.

As for `CC(CO)(CO)NS(=O)(=O)c1cccc([N+](=O)[O-])c1`, the melting point is 116 °C.

`Cc1cc(C)nc(Oc2ccnc3cc(Cl)ccc23)n1` returned a melting point of 104 to 105 °C.

As for `CCCc1[nH]c2cc(C(N)=O)ccc2c1C(=O)C=C(C)C`, the melting point was in the range of 179 to 181 °C.

With `c1ccc(-c2cnc3nncn3c2)cc1`, the melting point was 231 °C.

Regarding `O=C(c1ccccc1Cl)c1cc2c(cc1NC=C[N+](=O)[O-])CCC2`, the melting point was 225 to 226 °C.

For the molecule `COc1ccc2ccc3c(c2c1)CCC(=O)O3`, the melting point was in the range of 100 to 101 °C.

In turn, `C=C(C)Cc1cc2c(cc1O)CC(=O)N2CC` showed a melting point of 118 to 120 °C.

Molecule `COc1cc(OC)cc(C2=N[C@H]3CCN(C)C[C@H]3c3ccccc32)c1` (relative stereo) came in with a melting point of 123 to 124 °C.

`COCc1cccc(C(C#N)c2nc(OC)cc(OC)n2)c1[N+](=O)[O-]` (stereo unspecified) yielded a melting point of 112 to 113 °C.

The molecule `O=C1C(c2ccc(O)cc2)=C(c2ccccc2)c2ccc(O)cc21` displayed a melting point of 100 to 110 °C.

`CC1(C(=O)CC(=O)c2ccc(S(C)(=O)=O)c(Cl)c2Cl)CC1` showed a melting point of 143 °C.

Consider `CCCc1c(OCCCCCc2nnnn2C)ccc(C(C)=O)c1O`, for which the melting point is 72 to 75 °C.

As to `Cc1nnc2n1-c1ccc(Cl)cc1N(c1ccccc1)C(=O)C2`, the melting point lay within 297 to 298 °C.

In turn, `O=C(NN=Cc1ccc2cc(OC(=O)c3ccc([N+](=O)[O-])o3)ccc2c1)OCc1ccccc1` registered a melting point of 109 to 112 °C.

`COc1ccc(Nc2cc3c(cc2Nc2ccccc2)C(=O)NC3=O)cc1` gave a melting point of 266 to 267 °C.

The molecule `Cn1cc(C(=O)NCc2ccc(Cl)cc2)c(=O)c2sc(C=O)c(COCC[Si](C)(C)C)c21` had a melting point of 174 to 176 °C.

The molecule `CCOCc1c(-c2ccccc2)oc2c(C(=O)NCCCN3CCN(c4ccccc4OC)CC3)cccc2c1=O` displayed a melting point of 129 to 133 °C.

For the molecule `CC(C)(C)OC(=O)N[C@@H](Cc1ccccc1)C(=O)N[C@H]1CCOC1=O`, the melting point was 132 to 133 °C.

The molecule `COc1ccc(C2COc3cc(O)c(O)cc3C2)cc1OC` (stereo unspecified) registered a melting point of 153 °C.

`CCCOc1ccccc1-c1nc2nc(NCC(F)(F)F)ncc2c(=O)[nH]1` displayed a melting point of 214 to 216 °C.

Turning to `COc1ccc(COC(=O)c2nc(-c3ccc(Cl)c(OC)c3F)cc(N)c2Cl)cc1`, the melting point was 73 to 83 °C.

The molecule `OCCCc1ccc2c(c1)Cc1cc(CCCO)ccc1-2` returned a melting point of 160 to 180 °C.

Molecule `CCNc1nc(NC)cc(NS(=O)(=O)c2ccc(N)cc2)n1` registered a melting point of 261 to 263 °C.

In the case of `Cc1cccc2[nH]c(=O)n(S(=O)(=O)c3ccc(Cl)cc3)c(=O)c12`, the melting point is more than 250 °C.

The molecule `CCCCCCN1C(=O)C(=CC(=O)O)SC1=Nc1ccc(Cl)c(Cl)c1` showed a melting point of 156 to 157 °C.

`Fc1ccc(C=C(c2ccccc2)C(F)(F)F)cc1` yielded a melting point of 35 to 41 °C.

For orientation: melting point means the temperature, or range, at which the solid turns liquid.
